Source: the NIST ThermoML archive (doi:10.1021/acs.jced.7b00750)

Experiments:
[1] = 100 kPa, Liquid, Vibrating tube method
[2] = xn = mol fraction of the nth substance listed; conditions: 100 kPa, Liquid, Vibrating tube method, x2 = 0

O [water]
[1]
Conditions	mass density [kg/m3]
274.15 K	999.899
275.15 K	999.94
276.15 K	999.964
277.15 K	999.972
278.15 K	999.964
279.15 K	999.94
280.15 K	999.901
281.15 K	999.848
282.15 K	999.781
283.15 K	999.699
323.15 K	988.03
333.15 K	983.191

O [water] + CNC(N)=O
[2]
Conditions	mass density [kg/m3]
274.15 K	999.899
275.15 K	999.94
276.15 K	999.964
277.15 K	999.972
278.15 K	999.964
279.15 K	999.94
280.15 K	999.901
281.15 K	999.848
282.15 K	999.781
283.15 K	999.699
323.15 K	988.03
333.15 K	983.191
